Assay results taken from PMC5685509 (Journal of agricultural and food chemistry, 2017).
Counter-ions that a name gives are not always drawn.

Legend:
Hepa1c1c7 cells = assay: cytotoxicity in Hepa1c1c7 cells; type: cell-based, murine; conditions: Mus musculus, Hepa-1c1c7, read-out: quinone reductase (QR) induction IC50
quinone reductase = assay: in vitro quinone reductase; type: cell-based, murine; conditions: for CI, chemoprevention index (= IC50/CD): Hepa1c1c7 cells
[1] = in vitro hydroxyl radical-scavenging activity bioassay; type: biochemical

Structure (SMILES) | IC50 (Hepa1c1c7 cells) [µM] | CI, chemoprevention index (= IC50/CD) (quinone reductase) | hydroxyl radical-scavenging activity (in words) [1] | quinone reductase-inducing activity (in words) (quinone reductase)
C[S@@+]([O-])CCCCN=C=S [L-sulforaphane, reference compound] | 16.7 ± 1.9 | 21.7 ± 2.8 |  | 
O=c1c(O[C@@H]2OC[C@@H](O)[C@H](O)[C@H]2O)c(-c2ccc(O)c(O)c2)oc2cc(O)cc(O)c12 [Compound 9, quercetin 3-O-β-D-xylopyranoside] | > 100 |  |  | 
COC(=O)CC(O)(CC(=O)OC)C(=O)O [Compound 16, 1,5-dimethyl citrate] |  |  | showed activity in neither of these two assays | showed activity in neither of these two assays
COC(=O)c1cc(O)c(O)c(O)c1 [Compound 11, gallic acid methyl ester] | 82.4 ± 11.9 | 5.8 ± 0.82 |  | exhibited quinone reductase-inducing activity
O=Cc1ccc(CO)o1 [Compound 14, hydroxymethylfurfural] |  |  |  | exhibited quinone reductase-inducing activity
O=C(O)c1cc(O)c(O)c(O)c1 [Compound 10, gallic acid] | 55.3 ± 7.8 |  |  | 
O=c1c(O[C@@H]2O[C@@H](CO)[C@H](O)[C@H]2O)c(-c2ccc(O)c(O)c2)oc2cc(O)cc(O)c12 [Compound 8, quercetin 3-O-α-L-arabinofuranoside] | > 100 |  |  | 
O=c1c(O[C@@H]2O[C@H](CO)[C@H](O)[C@H](O)[C@H]2O)c(-c2ccc(O)c(O)c2)oc2cc(O)cc(O)c12 [Compound 7, hyperoside] | > 100 | >5.2 |  | exhibited quinone reductase-inducing activity
CC(=O)OCc1ccc(C=O)o1 [Compound 15, acetyloxymethylfurfural] |  |  | showed activity in neither of these two assays | showed activity in neither of these two assays
O=C(O)c1ccc(O)c(O)c1 [Compound 12, protocatechuic acid] | > 100 | >24.4 |  | exhibited quinone reductase-inducing activity
